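In this assay, cells in 96-well plates receive the compound at five concentrations for 48 hours. Endpoints are linearly interpolated between the surrounding concentrations. GI50 marks 50% less growth.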 Calls of active or inactive are those of the source. Rule as the data show it: active = GI50 up to about 1.1 µM and inactive = higher.
Legend:
Assay in all cases: DTP human tumour cell line panel, 48 h
HCC 2998 = system: HCC 2998
HL-60 = system: HL-60
NCI-H460 = system: NCI-H460
CCRF-CEM = system: CCRF-CEM
SN12C = system: SN12C
HCT-15 = system: HCT-15
MOLT-4 = system: MOLT-4
RPMI-8226 = system: RPMI-8226
RXF 631 = system: RXF 631
SK-MEL-5 = system: SK-MEL-5
IGROV-1 = system: IGROV-1
M14 = system: M14
M19-MEL = system: M19-MEL
SNB-19 = system: SNB-19
EKVX = system: EKVX
K562 = system: K562
DLD-1 = system: DLD-1
SK-OV-3 = system: SK-OV-3
SNB-78 = system: SNB-78
OVCAR-4 = system: OVCAR-4
LOX IMVI = system: LOX IMVI
UACC-62 = system: UACC-62
U-251 = system: U-251
OVCAR-8 = system: OVCAR-8
DMS-273 = system: DMS-273
HT-29 = system: HT-29
OVCAR-3 = system: OVCAR-3
NCI-H23 = system: NCI-H23
SK-MEL-28 = system: SK-MEL-28
COLO 205 = system: COLO 205
SW-620 = system: SW-620
SF-539 = system: SF-539
RXF 393 = system: RXF 393
NCI-H226 = system: NCI-H226
NCI-H522 = system: NCI-H522
TK-10 = system: TK-10
UACC-257 = system: UACC-257
HOP-62 = system: HOP-62
A549 = system: A549
HOP-92 = system: HOP-92
SNB-75 = system: SNB-75
LXFL 529 = system: LXFL 529
KM12 = system: KM12
SF-295 = system: SF-295
SK-MEL-2 = system: SK-MEL-2
KM-20L2 = system: KM-20L2
Malme-3M = system: Malme-3M
OVCAR-5 = system: OVCAR-5
XF498 = system: XF498
UO-31 = system: UO-31
CAKI-1 = system: CAKI-1
786-0 = system: 786-0
ACHN = system: ACHN
SR = system: SR
HCT-116 = system: HCT-116
SF-268 = system: SF-268
HOP-18 = system: HOP-18
A498 = system: A498
DMS-114 = system: DMS-114

Measured: GI50

CC(C)(C)N1C(C(=O)c2ccccc2)C1c1ccccc1 (centres undefined)
inactive: HCC 2998 > 100 µM | HL-60 > 100 µM | NCI-H460 > 100 µM | CCRF-CEM > 100 µM | SN12C > 100 µM | MOLT-4 > 100 µM | RPMI-8226 > 100 µM | RXF 631 > 100 µM | SK-MEL-5 > 100 µM | IGROV-1 > 100 µM | M14 > 100 µM | M19-MEL > 100 µM | SNB-19 > 100 µM | EKVX > 100 µM | K562 > 100 µM | DLD-1 > 100 µM | SK-OV-3 > 100 µM | SNB-78 > 100 µM | OVCAR-4 > 100 µM | LOX IMVI > 100 µM | UACC-62 > 100 µM | U-251 > 100 µM | OVCAR-8 > 100 µM | DMS-273 > 100 µM | HT-29 > 100 µM | OVCAR-3 > 100 µM | NCI-H23 > 100 µM | SK-MEL-28 > 100 µM | COLO 205 > 100 µM | SW-620 > 100 µM | SF-539 > 100 µM | RXF 393 > 100 µM | NCI-H226 > 100 µM | NCI-H522 > 100 µM | TK-10 > 100 µM | UACC-257 > 100 µM | HOP-62 > 100 µM | A549 > 100 µM | HOP-92 > 100 µM | SNB-75 > 100 µM | LXFL 529 > 100 µM | KM12 > 100 µM
> 100 µM: HCT-15

CC(=O)C=C1Nc2ccccc2N1
inactive: SF-295 > 100 µM | HCC 2998 > 100 µM | SK-MEL-2 > 100 µM | HL-60 > 100 µM | NCI-H460 > 100 µM | CCRF-CEM > 100 µM | SN12C > 100 µM | MOLT-4 > 100 µM | RPMI-8226 > 100 µM | KM-20L2 > 100 µM | RXF 631 > 100 µM | Malme-3M > 100 µM | SK-MEL-5 > 100 µM | IGROV-1 > 100 µM | M14 > 100 µM | M19-MEL > 100 µM | SNB-19 > 100 µM | EKVX > 100 µM | OVCAR-5 > 100 µM | K562 > 100 µM | DLD-1 > 100 µM | SNB-78 > 100 µM | XF498 > 100 µM | UO-31 > 100 µM | CAKI-1 > 100 µM | OVCAR-4 > 100 µM | LOX IMVI > 100 µM | UACC-62 > 100 µM | U-251 > 100 µM | OVCAR-8 > 100 µM | HT-29 > 100 µM | OVCAR-3 > 100 µM | NCI-H23 > 100 µM | 786-0 > 100 µM | SK-MEL-28 > 100 µM | COLO 205 > 100 µM | SW-620 > 100 µM | SF-539 > 100 µM | RXF 393 > 100 µM | NCI-H226 > 100 µM | ACHN > 100 µM | NCI-H522 > 100 µM | SR > 100 µM | HCT-116 > 100 µM | UACC-257 > 100 µM | A549 > 100 µM | SF-268 > 100 µM | SNB-75 36.9 µM | LXFL 529 > 100 µM | KM12 > 100 µM
> 100 µM: HCT-15

CC1(C)O[C@@H](CC/C=C/CO)[C@H](CC/C=C/CO)O1
> 100 µM: HCT-15
inactive: SF-295 > 100 µM | HCC 2998 > 100 µM | SK-MEL-2 > 100 µM | HL-60 63.8 µM | NCI-H460 > 100 µM | CCRF-CEM > 100 µM | SN12C > 100 µM | MOLT-4 > 100 µM | RPMI-8226 > 100 µM | KM-20L2 > 100 µM | Malme-3M > 100 µM | SK-MEL-5 > 100 µM | IGROV-1 > 100 µM | M14 > 100 µM | M19-MEL > 100 µM | SNB-19 > 100 µM | EKVX > 100 µM | OVCAR-5 > 100 µM | K562 > 100 µM | DLD-1 > 100 µM | SK-OV-3 > 100 µM | SNB-78 > 100 µM | XF498 > 100 µM | CAKI-1 > 100 µM | OVCAR-4 > 100 µM | LOX IMVI > 100 µM | U-251 > 100 µM | OVCAR-8 > 100 µM | DMS-273 > 100 µM | HT-29 > 100 µM | OVCAR-3 > 100 µM | NCI-H23 > 100 µM | 786-0 > 100 µM | SK-MEL-28 > 100 µM | HOP-18 > 100 µM | COLO 205 > 100 µM | SW-620 > 100 µM | SF-539 > 100 µM | A498 > 100 µM | NCI-H226 > 100 µM | ACHN > 100 µM | NCI-H522 > 100 µM | SR 74.6 µM | TK-10 > 100 µM | HCT-116 > 100 µM | UACC-257 > 100 µM | HOP-62 > 100 µM | A549 > 100 µM | SF-268 > 100 µM | HOP-92 > 100 µM | SNB-75 > 100 µM | LXFL 529 > 100 µM | KM12 > 100 µM | DMS-114 > 100 µM

From ChEMBL document CHEMBL1201862, “PubChem BioAssay data set” (2004)
